Experiments:
Type in all cases: cell-based
hERG channel = biological target: T1, hERG channel (Homo sapiens, UniProt Q12809); assay: automated patch clamp (PatchLiner), hERG tail current
T1 construct: gene KCNH2; hERG-overexpressing HEK cells

[1] = biological target: T2, Anoctamin 1 (ANO1, TMEM16A) (Homo sapiens, UniProt Q5XXA6); assay: YFP iodide-influx quenching assay and short-circuit current (Ussing chamber)
T2 construct: endogenous ANO1 in PC9-YFP cells; ANO1-expressing FRT cells
T2 sequence (Q5XXA6 1-986): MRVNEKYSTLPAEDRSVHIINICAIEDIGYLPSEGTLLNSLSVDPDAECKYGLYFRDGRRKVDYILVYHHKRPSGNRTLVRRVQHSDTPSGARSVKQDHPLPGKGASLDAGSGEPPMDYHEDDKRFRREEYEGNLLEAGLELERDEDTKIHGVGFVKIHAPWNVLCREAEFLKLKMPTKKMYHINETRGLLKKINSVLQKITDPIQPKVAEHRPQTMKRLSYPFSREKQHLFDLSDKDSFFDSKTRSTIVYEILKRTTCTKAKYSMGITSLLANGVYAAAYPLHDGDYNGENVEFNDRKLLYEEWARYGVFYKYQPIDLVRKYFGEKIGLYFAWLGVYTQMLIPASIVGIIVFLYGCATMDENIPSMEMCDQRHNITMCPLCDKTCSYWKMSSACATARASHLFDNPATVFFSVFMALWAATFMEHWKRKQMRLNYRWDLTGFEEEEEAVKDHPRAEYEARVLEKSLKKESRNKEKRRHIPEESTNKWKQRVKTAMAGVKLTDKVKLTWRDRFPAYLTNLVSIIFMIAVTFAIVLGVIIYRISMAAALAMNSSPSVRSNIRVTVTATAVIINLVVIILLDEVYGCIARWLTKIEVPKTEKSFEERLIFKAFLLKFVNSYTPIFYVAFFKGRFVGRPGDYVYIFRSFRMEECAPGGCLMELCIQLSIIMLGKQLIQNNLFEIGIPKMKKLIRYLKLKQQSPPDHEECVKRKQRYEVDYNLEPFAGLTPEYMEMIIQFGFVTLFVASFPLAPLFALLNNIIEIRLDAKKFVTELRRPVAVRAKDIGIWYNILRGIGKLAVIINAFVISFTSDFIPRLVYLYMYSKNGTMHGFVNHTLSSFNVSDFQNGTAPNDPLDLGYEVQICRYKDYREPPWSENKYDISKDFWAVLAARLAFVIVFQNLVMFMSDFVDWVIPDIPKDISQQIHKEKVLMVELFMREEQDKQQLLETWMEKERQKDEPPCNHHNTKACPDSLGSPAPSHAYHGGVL

CFTR = biological target: T3, CFTR (Homo sapiens, UniProt P13569); assay: short-circuit current (Ussing chamber), forskolin-activated; complete block at […]
T3 construct: CFTR-expressing FRT cells
T3 sequence (P13569 whole entry): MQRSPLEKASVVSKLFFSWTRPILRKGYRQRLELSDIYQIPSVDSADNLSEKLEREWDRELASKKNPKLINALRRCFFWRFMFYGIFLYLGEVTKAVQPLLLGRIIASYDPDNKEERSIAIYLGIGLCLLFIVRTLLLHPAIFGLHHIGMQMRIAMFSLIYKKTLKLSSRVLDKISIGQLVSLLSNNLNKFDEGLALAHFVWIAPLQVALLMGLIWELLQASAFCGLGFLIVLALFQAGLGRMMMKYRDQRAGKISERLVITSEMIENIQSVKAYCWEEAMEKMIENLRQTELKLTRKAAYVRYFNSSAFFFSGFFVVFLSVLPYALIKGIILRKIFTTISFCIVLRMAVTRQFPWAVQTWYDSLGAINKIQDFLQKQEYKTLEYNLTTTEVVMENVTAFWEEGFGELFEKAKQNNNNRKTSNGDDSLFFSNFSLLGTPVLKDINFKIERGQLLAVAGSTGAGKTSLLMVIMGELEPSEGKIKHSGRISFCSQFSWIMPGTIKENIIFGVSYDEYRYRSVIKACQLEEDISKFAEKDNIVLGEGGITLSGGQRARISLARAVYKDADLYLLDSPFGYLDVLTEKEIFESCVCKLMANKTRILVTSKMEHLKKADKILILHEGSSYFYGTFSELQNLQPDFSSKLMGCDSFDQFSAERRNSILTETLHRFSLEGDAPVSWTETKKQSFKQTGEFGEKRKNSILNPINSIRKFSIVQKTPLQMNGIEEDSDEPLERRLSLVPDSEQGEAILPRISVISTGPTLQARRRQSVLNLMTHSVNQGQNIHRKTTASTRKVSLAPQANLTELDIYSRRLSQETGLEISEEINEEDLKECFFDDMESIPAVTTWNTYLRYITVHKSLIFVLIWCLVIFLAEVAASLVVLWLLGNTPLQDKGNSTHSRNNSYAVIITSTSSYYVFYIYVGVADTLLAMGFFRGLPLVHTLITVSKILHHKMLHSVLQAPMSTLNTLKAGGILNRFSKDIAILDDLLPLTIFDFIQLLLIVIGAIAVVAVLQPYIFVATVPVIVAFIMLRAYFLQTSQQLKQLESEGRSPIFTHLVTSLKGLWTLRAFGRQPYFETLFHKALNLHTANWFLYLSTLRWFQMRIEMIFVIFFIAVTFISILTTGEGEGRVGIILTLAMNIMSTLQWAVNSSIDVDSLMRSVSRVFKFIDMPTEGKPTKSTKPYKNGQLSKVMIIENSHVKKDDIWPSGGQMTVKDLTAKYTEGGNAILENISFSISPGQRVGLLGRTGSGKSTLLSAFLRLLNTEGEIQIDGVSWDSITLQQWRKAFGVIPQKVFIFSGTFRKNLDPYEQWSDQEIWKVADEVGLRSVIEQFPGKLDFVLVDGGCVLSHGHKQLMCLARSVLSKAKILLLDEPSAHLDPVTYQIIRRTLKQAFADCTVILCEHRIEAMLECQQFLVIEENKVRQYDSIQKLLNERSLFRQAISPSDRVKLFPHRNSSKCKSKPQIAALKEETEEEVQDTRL

T1 sequence (Q12809 whole entry): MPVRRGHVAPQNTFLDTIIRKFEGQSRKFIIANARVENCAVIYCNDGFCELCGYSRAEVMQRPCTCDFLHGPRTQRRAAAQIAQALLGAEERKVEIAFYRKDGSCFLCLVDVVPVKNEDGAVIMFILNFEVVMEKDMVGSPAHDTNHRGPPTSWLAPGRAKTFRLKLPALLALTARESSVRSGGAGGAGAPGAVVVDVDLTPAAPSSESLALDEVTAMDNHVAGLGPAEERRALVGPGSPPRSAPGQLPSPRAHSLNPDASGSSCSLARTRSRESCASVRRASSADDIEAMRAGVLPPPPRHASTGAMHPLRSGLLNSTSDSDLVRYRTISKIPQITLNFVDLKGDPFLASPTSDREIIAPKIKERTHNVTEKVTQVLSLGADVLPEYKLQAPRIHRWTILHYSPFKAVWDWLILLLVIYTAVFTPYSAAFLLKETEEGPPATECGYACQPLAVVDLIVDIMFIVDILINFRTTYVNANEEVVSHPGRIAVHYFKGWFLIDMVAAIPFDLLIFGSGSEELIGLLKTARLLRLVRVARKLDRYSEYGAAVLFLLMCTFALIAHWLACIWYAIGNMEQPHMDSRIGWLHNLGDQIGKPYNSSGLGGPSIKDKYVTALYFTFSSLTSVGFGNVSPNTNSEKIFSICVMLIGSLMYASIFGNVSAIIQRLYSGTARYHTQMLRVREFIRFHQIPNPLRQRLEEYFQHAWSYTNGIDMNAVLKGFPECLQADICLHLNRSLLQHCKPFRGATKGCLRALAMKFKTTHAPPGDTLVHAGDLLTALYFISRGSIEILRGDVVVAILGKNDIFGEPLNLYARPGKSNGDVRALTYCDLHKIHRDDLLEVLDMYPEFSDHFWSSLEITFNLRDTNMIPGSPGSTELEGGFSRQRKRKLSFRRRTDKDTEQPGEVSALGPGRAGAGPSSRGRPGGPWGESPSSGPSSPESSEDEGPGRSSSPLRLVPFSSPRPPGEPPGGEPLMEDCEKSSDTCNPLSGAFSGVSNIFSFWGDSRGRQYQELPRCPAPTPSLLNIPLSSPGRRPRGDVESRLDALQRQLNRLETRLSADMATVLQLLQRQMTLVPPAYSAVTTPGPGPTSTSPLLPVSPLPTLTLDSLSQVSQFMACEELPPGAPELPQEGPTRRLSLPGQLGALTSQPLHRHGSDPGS

Compound	IC50 (hERG channel) [µM]	YFP iodide-influx quenching assay and short-circuit current (Ussing chamber) [1]	short-circuit current (Ussing chamber), forskolin-activated; complete block at 1 (CFTR) [µM]
COc1ccc(-c2oc3cc(OC)c(OC)c(O)c3c(=O)c2OC)cc1O [vitexicarpin, 3′,5-dihydroxy-3,4′,6,7-tetramethoxyflavone]	35.4	vitexicarpin inhibited ANO1 activation in a dose-dependent manner (Figure 2A)	–
O=C(O)c1ccc(/C=C2\SC(=S)N(c3cccc(C(F)(F)F)c3)C2=O)cc1 [CFTRinh-172]	–	–	10
